According to US20250011330A1, “Imidazo[1,2- a]pyrazine and Imidazo[1,2- a]pyridine Based Tyrosyl-DNA Phosphodiesterase I (TDP1) Inhibitors” (The USA, As Represented by the Secretary, Department of …, priority 2021, published 2025):
Like-named read-outs stand apart in the source and are kept apart here.

How the values were obtained:
[1] = molecular target: whole cell extract (WCE) human TDP1 (Homo sapiens (Human), UniProt Q9NUW8); experiment: gel based whole cell extract (WCE) human TDP1 fluorescence assay; format: biochemical; details: read-out: WCE hTDP1 IC50
whole cell extract (WCE) human TDP1, sequence (Q9NUW8 whole entry): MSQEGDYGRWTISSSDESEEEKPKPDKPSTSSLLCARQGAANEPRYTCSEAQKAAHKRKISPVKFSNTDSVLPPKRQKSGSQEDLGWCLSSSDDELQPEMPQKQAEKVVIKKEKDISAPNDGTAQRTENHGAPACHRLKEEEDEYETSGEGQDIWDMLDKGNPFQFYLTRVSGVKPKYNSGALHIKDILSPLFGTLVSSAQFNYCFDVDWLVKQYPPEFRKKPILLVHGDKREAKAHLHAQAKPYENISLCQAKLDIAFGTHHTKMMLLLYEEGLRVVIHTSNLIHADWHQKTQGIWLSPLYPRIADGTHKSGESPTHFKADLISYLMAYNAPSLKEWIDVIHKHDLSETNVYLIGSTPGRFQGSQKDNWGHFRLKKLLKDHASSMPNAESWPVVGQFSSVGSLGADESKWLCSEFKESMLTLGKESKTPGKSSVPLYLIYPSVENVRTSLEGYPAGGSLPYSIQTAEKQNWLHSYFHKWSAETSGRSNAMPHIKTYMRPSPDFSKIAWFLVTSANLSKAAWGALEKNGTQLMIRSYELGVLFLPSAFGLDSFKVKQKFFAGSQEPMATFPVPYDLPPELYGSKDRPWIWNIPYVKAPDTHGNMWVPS

[2] = test system: human colon cancer cell line HCT116; experiment: Synergistic effect with camptothecin (CPT) based on cell viability
Method in brief: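 HCT116 cells grown to 30% confluency were exposed for 72 h at 37 °C to serially diluted CPT (0-100 nM) with or without TDP1 inhibitors. Viable cells were counted from brightfield images; fractional affect and combination index came from CompuSyn, and synergy scores from SynergyFinder.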

TDP2 = TDP2 (Homo sapiens (Human), UniProt O95551); experiment: gel-based TDP2 fluorescence assay in vitro; format: biochemical; details: Table 3; read-out: TDP2 IC50
TDP2, sequence (O95551 whole entry, species assumed): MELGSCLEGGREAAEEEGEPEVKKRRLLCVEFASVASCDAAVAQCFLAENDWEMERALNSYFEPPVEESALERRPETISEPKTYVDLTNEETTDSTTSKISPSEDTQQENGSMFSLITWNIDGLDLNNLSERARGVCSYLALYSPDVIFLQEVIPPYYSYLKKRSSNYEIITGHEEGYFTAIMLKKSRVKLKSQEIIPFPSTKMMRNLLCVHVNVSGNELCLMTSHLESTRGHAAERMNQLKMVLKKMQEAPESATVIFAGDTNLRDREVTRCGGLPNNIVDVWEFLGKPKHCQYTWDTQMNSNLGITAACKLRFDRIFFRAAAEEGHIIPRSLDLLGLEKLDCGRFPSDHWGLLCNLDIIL

TDP1 = TDP1 (Homo sapiens (Human), UniProt Q9NUW8); experiment: TDP1 gel-based in vitro fluorescence assay; format: biochemical
TDP1, sequence (Q9NUW8 whole entry): as the sequence (Q9NUW8 whole entry) above

With O=C(O)c1ccc(Nc2c(-c3ccc(-c4ccccc4)cc3)nc3ccc(C(=O)O)cn23)cc1 [Compound 8n, 2-([1,1′-Biphenyl]-4-yl)-3-((4-carboxyphenyl)amino)imidazo[1,2-a]pyridine-6-carboxylic acid] the IC50 [1] was over 100000 nM, the synergy with camptothecin ([2]; list in description) was “exhibit synergy with camptothecin” and the “Synergy Score” value ([2]; with camptothecin (CPT), HCT116, 72 h, SynergyFinder 2.0) was 11.3. It also gave an IC50 (TDP2) of over 100000 nM, an IC50 (TDP1; Table 1, imidazo[1,2-a]pyridin-3-amines, read-out: IC50) of 1.5 µM and an IC50 (TDP1; Table 3, gel based TDP1 fluorescence assay, read-out: TDP1 IC50) of 2.94 ± 0.47 µM. For the same molecule, the IC50 (TDP1; Table 3, values in brackets (footnote vi), read-out: TDP1 IC50 (μM), separated data from previous experiments) was 1.5 µM and the “TDP1 Selectivity” value (TDP1; ratio of IC50 values of TDP1/TDP2) was over 34.
